Source: publication PMC12196235, “Enhancing the Pharmacological Properties of Triterpenes Through Acetylation: An Anticancer and Antioxidant Perspective” (Molecules, 2025)
pEC50, pIC50: −log10 of the molar value. Values joined by “and” are separate entries in the source; they are usually repeats but may differ in a detail not shown here. Identical values can stand only once. Like-named read-outs stand apart in the source and are kept apart here.

Experiments:
[1] = test system: HeLa, KB, MCF-7, A-549, PC-3 and SKOV-3; assay: MTT assay, summary over the cancer cell lines; type: cell-based, human; conditions: for cytotoxic activity class: classification by IC50 (good ≤ 10 μM, moderate 10–30 μM, ref 83)
Procedure: (§1) All the cell lines and mediums were obtained from the American Type Culture Collection (ATCC) supplied by LGC-Standards (Lomianki, Poland). Human cancer cell lines were cultured as follows: HeLa (human cervix carcinoma) and KB (human oral squamous carcinoma) lines were cultured in DMEM (Dulbecco’s Modified Eagle’s Medium); MCF-7 (human breast carcinoma) and A-549 (human lung carcinoma) were cultured in RPMI 1640 medium; PC-3 (human prostate carcinoma) was cultured in F-12K medium; SKOV-3 (human ovarian cystadenocarcinoma) was cultured in McCoy’s modified medium; HDF (human normal dermal fibroblasts) was cultured in Fibroblast Basal Medium. Each medium was supplemented with 10% fetal bovine serum, 1% L- glutamine and 1% penicillin/streptomycin solution. The cell lines were kept in an incubator at 37 °C.
(§2) All the tested cell lines (HeLa, KB, MCF-7, A-549, PC-3, SKOV-3 and HDF) were subjected to MTT assay. In short, this assay is based on the reaction between mitochondria enzymes (dehydrogenases) of tested cell lines and 3-(4,5-dimethylthiazol-2-yl)-2,5-diphenyltetrazolium bromide (MTT). The final product of this reaction gives violet formazan crystals. The number of live cells is proportional to the amount of formazan and is represented by the violet dye reagent. The details of the experiments are given in [19].

[2] = CUPRAC antioxidant assay; conditions: calculated from Trolox standard curve
Procedure: (§3) The results are presented as % inhibition of the copper(II) ions and Trolox equivalent calculated from the standard curve (Figure 9) and as % inhibition of the DPPH radical and Trolox equivalent, calculated from the standard curve (Figure 10).
(§4) The CUPRAC reagent (7.5 mM ethanolic 96% neocuproine solution, 10 mM CuCl2 × H2O solution and an ammonium acetate buffer of pH 7.0) and DPPH reagent (2,2-diphenyl-1-picrylhydrazyl 0.2 mM solution) were applied.
(§5) The CUPRAC method measures the reducing power of a sample by quantifying its ability to convert the Cu-neocuproine reagent complex to the Cu(I) form. In contrast, the DPPH assay relies on the ability of an antioxidant to donate a hydrogen atom or an electron to the stable DPPH radical, resulting in its reduction and subsequent color change. The results are presented as % inhibition of the copper(II) ions and Trolox equivalent calculated from the standard curve (Figure 9) and as % inhibition of the DPPH radical and Trolox equivalent, calculated from the standard curve (Figure 10). The spectroscopic detection in CUPRAC and DPPH assays was conducted with Synergy H1 Multi-Mode Microplate Reader (BioTek Instruments, Inc., Winooski, VT, USA). The details of the experiments are given in [102].

[3] = DPPH antioxidant assay; conditions: calculated from Trolox standard curve
Procedure: as §3, §4, §5

[4] = test system: SKOV-3 (human ovarian carcinoma); conditions: MTT assay, data published earlier, read-out: IC50 (±SD), SKOV-3; cited from earlier work
[5] = test system: HDF (human dermal fibroblasts); conditions: MTT assay, normal dermal fibroblasts; data published earlier; read-out: IC50 (±SD), HDF; cited from earlier work
[6] = test system: HSV-1/153 (Herpes simplex virus type 1 ACV-resistant strain); conditions: ref 15; read-out: antiviral EC50 (HSV-1/153); cited from earlier work
[7] = test system: HSV-1/106 (Herpes simplex virus type 1 ACV-resistant strain); conditions: ref 15; read-out: antiviral EC50 (HSV-1/106); cited from earlier work
[8] = test system: HSV-1/Blue (Herpes simplex virus type 1 ACV-resistant strain); conditions: ref 15; read-out: antiviral EC50 (HSV-1/Blue); cited from earlier work
[9] = test system: Staphylococcus aureus; conditions: ref 16; cited from earlier work
[10] = test system: Escherichia coli; conditions: ref 16; cited from earlier work
[11] = test system: Salmonella typhi; conditions: ref 16; cited from earlier work
[12] = test system: KB (human oral squamous carcinoma); conditions: ref 104; cited from earlier work
[13] = test system: Hep-G2 (human hepatocellular carcinoma); conditions: cited from earlier work
[14] = test system: HCT-116 (human colorectal carcinoma); conditions: cited from earlier work
[15] = test system: HT-29 (human colorectal adenocarcinoma); conditions: cited from earlier work
[16] = test system: A-549 (human lung carcinoma); conditions: cited from earlier work
[17] = test system: KB-VIN (multidrug resistant human epidermoid carcinoma); conditions: ref 104; cited from earlier work
[18] = test system: B16-F10 (murine melanoma); conditions: cited from earlier work
[19] = test system: RAW 264.7; conditions: ref 106; cited from earlier work
[20] = test system: J774A.1 (macrophage-like cell line); conditions: ref 106; cited from earlier work
[21] = test system: HeLa (human cervical epithelioid carcinoma); assay: MTT assay, HeLa; type: cell-based; conditions: for pIC50: Homo sapiens, MTT assay, HeLa, read-out: IC50 (±SD), HeLa
Procedure: as §1, §2

[22] = test system: KB (human oral squamous carcinoma); assay: MTT assay, KB; type: cell-based; conditions: for pIC50: Homo sapiens, MTT assay, KB; for Selectivity index (SI), KB: IC50 HDF / IC50 KB
Procedure: as §1, §2

[23] = test system: MCF-7 (human breast carcinoma); assay: MTT assay, MCF-7; type: cell-based; conditions: for pIC50: Homo sapiens, MCF7, MTT assay, MCF-7, read-out: IC50 (±SD), MCF-7; for Selectivity index (SI), MCF-7: IC50 HDF / IC50 MCF-7
Procedure: as §1, §2

[24] = test system: A-549 (human lung carcinoma); assay: MTT assay, A-549; type: cell-based; conditions: for pIC50: Homo sapiens, A549, MTT assay, A-549, read-out: IC50 (±SD), A-549; for Selectivity index (SI), A-549: IC50 HDF / IC50 A-549
Procedure: as §1, §2

[25] = test system: PC-3 (human prostate carcinoma); assay: MTT assay, PC-3; type: cell-based; conditions: for pIC50: Homo sapiens, MTT assay, PC-3, read-out: IC50 (±SD), PC-3; for Selectivity index (SI), PC-3: IC50 HDF / IC50 PC-3
Procedure: as §1, §2

[26] = test system: SKOV-3 (human ovarian carcinoma); assay: MTT assay, SKOV-3; type: cell-based; conditions: for pIC50: Homo sapiens, SK-OV-3, MTT assay, SKOV-3, read-out: IC50 (±SD), SKOV-3; for Selectivity index (SI), SKOV-3: IC50 HDF / IC50 SKOV-3
Procedure: as §1, §2

[27] = test system: HDF (human dermal fibroblasts); assay: MTT assay, normal HDF; type: cell-based; conditions: Homo sapiens, Fibroblast, read-out: IC50 (±SD), HDF
Procedure: as §1, §2

[28] = test system: CCRF-CEM, CEM (human T lymphoblastic leukemia); conditions: ref 26; read-out: anticancer IC50 (CCRF-CEM, CEM); cited from earlier work
[29] = test system: SMMC-7721 (human hepatocarcinoma); set-up: method as in PMID 35897914; conditions: ref 27; read-out: anticancer IC50 (SMMC-7721); cited from earlier work
[30] = test system: HCV (Hepatitis C virus); set-up: method as in PMID 26102077; conditions: ref 32; read-out: antiviral EC50 (HCV); cited from earlier work
[31] = test system: SW-480 (human colon adenocarcinoma); set-up: method as in PMID 28981110; conditions: ref 38; read-out: anticancer IC50 (SW-480); cited from earlier work
[32] = test system: NOZ (human gall bladder carcinoma); set-up: method as in PMID 31915810; conditions: ref 39; read-out: anticancer IC50 (NOZ); cited from earlier work
[33] = test system: A-2780 (human ovarian carcinoma); set-up: method as in PMID 31277238; conditions: ref 40; read-out: anticancer IC50 (A-2780); cited from earlier work

CC1(C)CC[C@]2(C(=O)O)CC[C@]3(C)C(=CC[C@@H]4[C@@]5(C)CC[C@H](O)C(C)(C)[C@@H]5CC[C@]43C)[C@@H]2C1 [1a, oleanolic acid]
cytotoxic activity class [1]: high or moderately high activity
Trolox Equivalent, CUPRAC Assay [2]: 0.1031 ± 0.00684 mg/mL
Trolox Equivalent, DPPH Assay [3]: 0.02633 ± 0.00109 mg/mL
pIC50 [4]: 4.73
pIC50 [5]: 4.60
pEC50 [6]: 4.88
pEC50 [7]: 4.89
pEC50 [8]: 4.88
antibacterial MBC (Staphylococcus aureus) [9]: 700 µg/mL
antibacterial MIC (S. aureus) [9]: 95 µg/mL
antibacterial MBC (Escherichia coli) [10]: 900 µg/mL
antibacterial MIC (E. coli) [10]: 95 µg/mL
antibacterial MBC (Salmonella typhi) [11]: 300 µg/mL
antibacterial MIC (S. typhi) [11]: 65 µg/mL
pIC50 [12]: < 5.00
pIC50 ([13]; ref 18, 19, read-out: anticancer IC50 (Hep-G2)): 4.79
pIC50 ([13]; ref 105, read-out: IC50 (Hep-G2)): 3.67
anticancer IC50 (HCT-116) ([14]; ref 20): anticancer: IC50 = 40 µg × mL^−1 (HCT-116)
pIC50 ([15]; ref 105, read-out: IC50 (HT-29)): 3.37
pIC50 ([16]; ref 104, read-out: IC50 (A-549)): 5.19
pIC50 [17]: < 5.00
pIC50 ([18]; ref 105): 3.97
pIC50 ([18]; ref 107): 3.97
pIC50 [19]: 4.38
pIC50 [20]: 4.45

CC1(C)CC[C@]2(CO)CC[C@]3(C)C(=CC[C@@H]4[C@@]5(C)CC[C@H](O)C(C)(C)[C@@H]5CC[C@]43C)[C@@H]2C1 [2a, erythrodiol]
pIC50 [21]: 4.27
pIC50 [22]: 4.18
Selectivity index (SI), KB [22]: 0.42
pIC50 [23]: 4.18
Selectivity index (SI), MCF-7 [23]: 0.43
pIC50 [24]: 4.20
Selectivity index (SI), A-549 [24]: 0.44
pIC50 [25]: 4.68
Selectivity index (SI), PC-3 [25]: 1.32
pIC50 [26]: 4.74
Selectivity index (SI), SKOV-3 [26]: 1.53
pIC50 [27]: 4.55
times less active than oleanolic acid 1a ([1]; HeLa, KB, MCF-7 and A-459 cell lines): 4.4–7.2 times
Trolox Equivalent, CUPRAC Assay [2]: 0.09414 mg/mL and 0.09414 ± 0.0095 mg/mL
Trolox Equivalent, DPPH Assay [3]: 0.02092 mg/mL and 0.02092 ± 0.000866 mg/mL
pIC50 ([13]; ref 24, read-out: anticancer IC50 (Hep-G2)): 4.56
pIC50 ([13]; ref 27, read-out: anticancer IC50 (Hep-G2)): 4.06
pEC50 ([15]; ref 25, read-out: anticancer EC50 (HT-29)): 4.31
pIC50 [28]: 3.60
pIC50 [29]: 4.19
pIC50 ([16]; cell line printed as A-459, read-out: anticancer IC50 (A-459)): 4.20

C=C(C)[C@@H]1CC[C@]2(C(=O)O)CC[C@]3(C)[C@H](CC[C@@H]4[C@@]5(C)CC[C@H](O)C(C)(C)[C@@H]5CC[C@]43C)[C@@H]12 [4a, betulinic acid]
pIC50 [21]: 4.56
Selectivity index (SI), HeLa ([21]; IC50 HDF / IC50 HeLa): 0.72
pIC50 [22]: 4.45
Selectivity index (SI), KB [22]: 0.56
pIC50 [23]: 4.55
Selectivity index (SI), MCF-7 [23]: 0.71
pIC50 [24]: 4.58
Selectivity index (SI), A-549 [24]: 0.76
pIC50 [25]: 4.97
Selectivity index (SI), PC-3 [25]: 1.88
pIC50 [26]: 5.02
Selectivity index (SI), SKOV-3 [26]: 2.09
pIC50 [27]: 4.70
cytotoxic activity class [1]: high or moderately high activity
Trolox Equivalent, CUPRAC Assay [2]: 0.07632 ± 0.00727 mg/mL
Trolox Equivalent, DPPH Assay [3]: 0.01526 ± 0.000632 mg/mL
pIC50 ([14]; ref 38, read-out: anticancer IC50 (HCT-116)): 3.75
pIC50 ([15]; ref 38, read-out: anticancer IC50 (HT-29)): 3.90
pIC50 [28]: 4.52
pEC50 [30]: 4.95
pIC50 [31]: 4.24
pIC50 [32]: 4.52
pIC50 [33]: 4.35
